Experimental data as given in publication PMC7367283, “A PIP2 substitute mediates voltage sensor-pore coupling in KCNQ activation” (Communications Biology, 2020).
Where “and” joins values, the source holds several entries; their conditions need not be identical. Equal values may be shown once.

Target: KCNQ3 with mutation A315T (KCNQ3*) (Homo sapiens, UniProt O43525, A315T)
Test: Two-electrode voltage clamp of KCNQ3* in Xenopus oocytes
Assay type: cell-based
Settings: Q3*, individual oocytes
Excerpt: KCNQ2 and KCNQ3 form a channel complex that carries M currents in neurons. Similar to KCNQ1, these KCNQ subunits require PIP2 for voltage-dependent activation. KCNQ2 alone can express functional channels in Xenopus oocytes, while KCNQ3 alone cannot. However, a single mutation, A315T, allows KCNQ3 to functionally express in Xenopus oocytes. We examined the effects of CP1 on KCNQ2, KCNQ3 with mutation A315T (denoted as KCNQ3*), KCNQ2+KCNQ3, and KCNQ2+KCNQ3* expressed in Xenopus oocytes (Fig. 5a). Similar to the effects on KCNQ1 and IKs channels, CP1 changed the amplitude of currents (Fig. 5b), shifted the G–V relation to more negative voltages (Fig. 5c), and slowed the deactivation kinetics (Fig. 5d) for all of these KCNQ channels. These CP1 effects were relatively small on KCNQ2 as compared with those on other KCNQ channels, and the effects on KCNQ2/KCNQ3* and KCNQ2/KCNQ3 complexes were closer to those on KCNQ2 alone.
Fig. 5 Subtype selectivity of CP1 on KCNQ channels. a Current traces of KCNQ channels as indicated in the absence and the presence of 10 µM CP1. […]
The whole-oocyte ionic currents were recorded with a GeneClamp 500B amplifier (Axon Instruments, CA) or iTEV90 amplifier (HEKA, Germany) and then sampled at 1 kHz and low-pass-filtered at 2 kHz. […] The Kir1.1 current was recorded with a high K^+ bath solution containing (in mM) 96 KCl, 4 NaCl, 1 CaCl2, 2 MgCl2, and 10 HEPES, pH 7.3–7.4. The HCN4 current was recorded in ND66 solution containing (in mM) 66 NaCl, 32 KCl, 1.8 CaCl2, 1 MgCl2, and 5 HEPES, pH 7.6. All the other potassium channels were recorded in ND96 solution. The currents of CaV1.2 channel were recorded in 40 mM Ba^2+ bath solution containing (in mM) 40 Ba(OH)2, 50 TEA-OH, 2 KOH, and 5 HEPES, adjusted to pH 7.4 with methanesulfonic acid. […] The HCN4 currents were recorded by a test pulse between −30 and −140 mV in 10-mV step from a holding potential of −30 mV. […]

For `O=S(=O)([O-])Oc1c(-c2sc3c(ccc4cccc(Cl)c43)c2OS(=O)(=O)[O-])[nH]c2ccc(Br)cc12.[Na+].[Na+]` [CP1, DISODIUM 5-BROMO-2-[9-CHLORO-3-(SULFONATOOXY) NAPHTHO [1,2-B] THIEN-2-YL]-1H-INDOL-3-YL SULFATE], the “outward current (Icp1/Ictrl)” value (10 µM CP1, at −10 mV) was 1.2737 and 1.6954 and 1.3889 and 1.1185 and 2.1991, the “∆V1/2” value (10 µM CP1) was 53.8685 mV and 55.0436 mV and 52.8957 mV and 57.617 mV and 27.8181 mV and the “τ deact at -120 mV” value (10 µM CP1 treated) was 0.795 s and 1.6371 s and 1.4451 s and 1.5742 s and 1.825 s and 1.6646 s.
